From patent US20260285859A1, “BI-CYCLIC PYRIMIDINE COMPOUNDS, METHODS AND USES THEREOF” (Zeno Management, Inc., priority 2023, published 2026) come the findings set out here.

Test [1] has as its target WEE1 (Homo sapiens, UniProt P30291). Briefly: LanthaScreen Eu Kinase Binding Assay, WEE1.
Procedure: (§1) Binding of the tracer to the kinase is detected using a europium-labeled anti-GST antibody, which binds to the fused tag on the kinase protein. […] Inhibitor binding to the kinase competes with tracer binding, resulting in loss of FRET from the donor/acceptor pairs.
(§2) Kinase/Antibody Mixtures and Tracer are diluted to a 2× and 4× working concentration, respectively in this same buffer. […] 0% displacement (no known inhibitor) and 100% displacement (highest concentration of known inhibitor) controls were included on each plate for maximum and minimum Emission Ratio determination, respectively. Dasatinib was used for both PKMYT1 and WEE1 as the known inhibitor.
(§3) IC50 determination was performed using a non-linear regression, variable slope (four parameter), inhibitor v. response equation (Prism 9.0).
Test [2] addresses T1, PKMYT1 (Homo sapiens, UniProt Q99640).
T1 sequence (Q99640 1-499): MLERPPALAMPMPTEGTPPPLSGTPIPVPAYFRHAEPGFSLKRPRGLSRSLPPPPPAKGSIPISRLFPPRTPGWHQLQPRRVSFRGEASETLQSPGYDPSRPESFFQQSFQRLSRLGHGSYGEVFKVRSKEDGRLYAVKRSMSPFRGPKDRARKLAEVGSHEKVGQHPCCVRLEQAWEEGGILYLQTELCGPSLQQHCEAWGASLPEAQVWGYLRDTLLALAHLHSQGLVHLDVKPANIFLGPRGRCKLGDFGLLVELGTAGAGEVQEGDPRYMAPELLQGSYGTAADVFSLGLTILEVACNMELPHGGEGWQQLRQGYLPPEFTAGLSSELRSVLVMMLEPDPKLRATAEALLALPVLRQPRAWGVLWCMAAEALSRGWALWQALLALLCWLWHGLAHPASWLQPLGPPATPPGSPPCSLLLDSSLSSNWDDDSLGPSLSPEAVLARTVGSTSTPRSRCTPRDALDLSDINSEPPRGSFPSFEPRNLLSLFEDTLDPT
Briefly: LanthaScreen Eu Kinase Binding Assay, PKMYT1. Background: Time-resolved FRET reads energy transfer from a long-lived donor to a nearby acceptor.
Procedure: as §1, §2, §3

WEE1, sequence (P30291 whole entry): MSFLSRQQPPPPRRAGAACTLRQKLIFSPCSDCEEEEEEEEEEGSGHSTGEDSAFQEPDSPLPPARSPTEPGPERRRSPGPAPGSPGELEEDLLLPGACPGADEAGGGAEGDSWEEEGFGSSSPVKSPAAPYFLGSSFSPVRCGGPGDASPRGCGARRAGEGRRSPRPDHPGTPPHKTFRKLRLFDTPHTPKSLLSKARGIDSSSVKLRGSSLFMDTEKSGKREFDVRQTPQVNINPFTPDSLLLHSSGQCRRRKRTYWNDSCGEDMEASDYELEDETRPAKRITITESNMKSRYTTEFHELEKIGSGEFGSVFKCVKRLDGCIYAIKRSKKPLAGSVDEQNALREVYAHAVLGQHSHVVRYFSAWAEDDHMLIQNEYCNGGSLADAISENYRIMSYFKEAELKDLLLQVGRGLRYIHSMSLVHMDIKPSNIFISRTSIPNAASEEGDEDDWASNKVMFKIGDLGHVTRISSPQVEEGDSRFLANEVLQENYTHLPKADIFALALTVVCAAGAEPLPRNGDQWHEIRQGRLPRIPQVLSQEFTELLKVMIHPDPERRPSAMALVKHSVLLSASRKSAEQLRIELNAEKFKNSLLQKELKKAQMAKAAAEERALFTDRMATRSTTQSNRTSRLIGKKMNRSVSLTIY

In general, IC50 refers to the concentration that inhibits the measured activity by half. On to `Cc1ccc(O)c(C)c1-c1cc(N(C)C)nc2c(N)ncnc12` [Compound 73-B, (R)-3-(4-Amino-6-(dimethylamino)pyrido[3,2-d]pyrimidin-8-yl)-2,4-dimethylphenol], for which the IC50 was more than 1000 nM in test [1] and 10 to 100 nM in test [2].

As to `Cc1ccc(O)c(C)c1-c1nc(N2CCCC(F)(F)C2)cc2c(N)ncnc12` (single isomer, unassigned) [Compound 20-B], the results for the half-maximal inhibitory concentration (IC50) in test [1] and in test [2] were 100 to 1000 nM and less than 10 nM, respectively.

`Cc1ccc(O)c(C)c1-c1nc(CC(=O)N2CCOCC2)cc2c(N)ncnc12` (single isomer, unassigned) [Compound 35-B]: the IC50 in test [1] was more than 1000 nM; in test [2], 100 to 1000 nM.

As for `Cc1ccc(O)c(C)c1-c1nc(-c2cnn(C)c2)cc2c(N)ncnc12` (single isomer, unassigned) [Compound 19-B], the 50% inhibitory concentration (IC50) in test [1] is 100 to 1000 nM; in test [2] it was less than 10 nM.

Consider `Cc1ccc(O)c(C)c1-c1nc(C(=O)N2CCCC2)cc2c(N)ncnc12` (single isomer, unassigned) [Compound 34-B], for which the IC50 in test [1] is more than 1000 nM; in test [2], 100 to 1000 nM.

Turning to `Cc1ccc(O)c(C)c1-c1cc(NC2CC2)nc2c(N)ncnc12` [Compound 72-B, (R)-3-(4-amino-6-(cyclopropylamino)pyrido[3,2-d]pyrimidin-8-yl)-2,4-dimethylphenol], the IC50 is more than 1000 nM in test [1] and less than 10 nM in test [2].

For `Cc1ccc(O)c(C)c1-c1nc(N2CCCC2=O)cc2c(N)ncnc12` (single isomer, unassigned) [Compound 43-B], the figures for the half-inhibitory concentration (IC50) in test [1] and in test [2] were more than 1000 nM and less than 10 nM, respectively.

For the molecule `C#Cc1cc2c(N)ncnc2c(-c2c(C)ccc(O)c2C)n1` (single isomer, unassigned) [Compound 33-B], the concentration for half-maximal inhibition (IC50) is more than 1000 nM in test [1] and less than 10 nM in test [2].

Turning to `COc1cc2c(N)ncnc2c(-c2c(C)ccc(O)c2C)n1` (single isomer, unassigned) [Compound 49-B], the IC50 is more than 1000 nM in test [1] and 10 to 100 nM in test [2].

In the case of `COC[C@H]1CCN1c1cc2c(N)ncnc2c(-c2c(C)ccc(O)c2C)n1` (single isomer, unassigned) [Compound 25-B], the IC50 in test [1] was more than 1000 nM; in test [2], 10 to 100 nM.

Regarding `C=C(C)c1cc2c(N)ncnc2c(-c2c(C)ccc(O)c2C)n1` (single isomer, unassigned) [Compound 57-B], the IC50 in test [1] is more than 1000 nM; in test [2], less than 10 nM.

Take `Cc1ccc(O)c(C)c1-c1nc(N(C)CCC#N)cc2c(N)ncnc12` (single isomer, unassigned) [Compound 41-B]: the half-inhibitory concentration (IC50) in test [1] was more than 1000 nM; in test [2], less than 10 nM.

`COCCN(C)c1cc2c(N)ncnc2c(-c2c(C)ccc(O)c2C)n1` (single isomer, unassigned) [Compound 9-B]: the IC50 in test [1] was more than 1000 nM; in test [2], 10 to 100 nM.

Take `[2H]C([2H])([2H])N(c1cc2c(N)ncnc2c(-c2c(C)ccc(O)c2C)n1)C1CC1` [Compound 60-B, (S)-3-(4-amino-6-(cyclopropyl(methyl-d3)amino)pyrido[3,4-d]pyrimidin-8-yl)-2,4-dimethylphenol]: the 50% inhibitory concentration (IC50) in test [1] was 100 to 1000 nM; in test [2] it was less than 10 nM.

Take `COC1CN(c2cc3c(N)ncnc3c(-c3c(C)ccc(O)c3C)n2)C1` (single isomer, unassigned) [Compound 26-B]: the IC50 is more than 1000 nM in test [1] and 10 to 100 nM in test [2].

`Cc1ccc(O)c(C)c1-c1nc(-c2ccncc2)cc2c(N)ncnc12` [Compound 32-B, (S)-3-(4-amino-6-(pyridin-4-yl)pyrido[3,4-d]pyrimidin-8-yl)-2,4-dimethylphenol]: the values for the IC50 in test [1] and in test [2] were 100 to 1000 nM and less than 10 nM, respectively.

As for `CC[C@H](C)N(C)c1cc2c(N)ncnc2c(-c2c(C)ccc(O)c2C)n1` (single isomer, unassigned) [Compound 45-B], the IC50 in test [1] is more than 1000 nM; in test [2] it was 10 to 100 nM.

For the molecule `Cc1ccc(O)c(C)c1-c1nc(C(F)F)cc2c(N)ncnc12` (single isomer, unassigned) [Compound 48-B], the figures for the IC50 in test [1] and in test [2] were more than 1000 nM and 10 to 100 nM, respectively.

In the case of `Cc1ccc(O)c(C)c1-c1nc(N(C)CC2CC2)cc2c(N)ncnc12` (single isomer, unassigned) [Compound 30-B], the half-inhibitory concentration (IC50) is more than 1000 nM in test [1] and less than 10 nM in test [2].

Consider `Cc1ccc(O)c(C)c1-c1nc(N(C)C)cc2c(N)ncnc12` (single isomer, unassigned) [Compound 10-B], for which the half-inhibitory concentration (IC50) in test [1] is more than 1000 nM; in test [2], less than 10 nM.

In the case of `Cc1ccc(O)c(C)c1-c1nc(N2CCCC2)cc2c(N)ncnc12` (single isomer, unassigned) [Compound 6-B], the IC50 in test [1] is more than 1000 nM; in test [2], less than 10 nM.

In the case of `Cc1cc(-c2c(C)ccc(O)c2C)c2ncnc(N)c2c1` (single isomer, unassigned) [Compound 53-B], the IC50 in test [1] is more than 1000 nM; in test [2], 10 to 100 nM.

In turn, `Cc1cc2c(C(N)=O)c(N)n(-c3c(C)ccc(O)c3C)c2nc1C` [RP-6306, Lunresertib, reference compound] gave an IC50 in test [1] of 10 to 100 nM.

In the case of `Cc1ccc(O)c(C)c1-c1nc(N2CCOCC2)cc2c(N)ncnc12` (single isomer, unassigned) [Compound 7-B], the 50% inhibitory concentration (IC50) is more than 1000 nM in test [1] and less than 10 nM in test [2].

Take `Cc1ccc(O)c(C)c1-c1nc(N2CC[C@](C)(O)C2)cc2c(N)ncnc12` (single isomer, unassigned) [Compound 13-E]: the IC50 was more than 1000 nM in test [1] and 10 to 100 nM in test [2].

`COC[C@@H]1CCN1c1cc2c(N)ncnc2c(-c2c(C)ccc(O)c2C)n1` (single isomer, unassigned) [Compound 24-B]: the 50% inhibitory concentration (IC50) is more than 1000 nM in test [1] and 10 to 100 nM in test [2].

For `Cc1ccc(O)c(C)c1-c1nc(N(C)C2CCCC2)cc2c(N)ncnc12` (single isomer, unassigned) [Compound 44-B], the IC50 in test [1] was 100 to 1000 nM; in test [2] it was less than 10 nM.

In the case of `Cc1ccc(O)c(C)c1-c1nc(N2CC[C@]3(CCO3)C2)cc2c(N)ncnc12` (single isomer, unassigned) [Compound 38-B], the IC50 in test [1] is more than 1000 nM; in test [2], less than 10 nM.

Regarding `CCN(C)c1cc2c(N)ncnc2c(-c2c(C)ccc(O)c2C)n1` (single isomer, unassigned) [Compound 27-B], the half-maximal inhibitory concentration (IC50) was more than 1000 nM in test [1] and less than 10 nM in test [2].

Turning to `Cc1ccc(O)c(C)c1-c1nc(N2CC[C@@](C)(F)C2)cc2c(N)ncnc12` (single isomer, unassigned) [Compound 54-B], the IC50 is 100 to 1000 nM in test [1] and less than 10 nM in test [2].

Regarding `Cc1ccc(O)c(C)c1-c1c(C)c(N(C)C)cc2c(N)ncnc12` (single isomer, unassigned) [Compound 51-B], the IC50 in test [1] was more than 1000 nM; in test [2], 10 to 100 nM.

As for `Cc1cc(-c2c(C)ccc(O)c2C)c2ncnc(N)c2n1` [Compound 74-B, (R)-3-(4-amino-6-methylpyrido[3,2-d]pyrimidin-8-yl)-2,4-dimethylphenol], the IC50 in test [1] is more than 1000 nM; in test [2], 10 to 100 nM.

Regarding `[2H]C([2H])([2H])N(c1cc2c(N)ncnc2c(-c2c(C)ccc(O)c2C)n1)[C@H]1[C@@H]2COC[C@@H]21` [Compound 63-B, 3-((S)-6-(((1R,5S,6r)-3-oxabicyclo[3.1.0]hexan-6-yl)(methyl-d3)amino)-4-aminopyrido[3,4-d]pyrimidin-8-yl)-2,4-dimethylphenol], the values for the concentration for half-maximal inhibition (IC50) in test [1] and in test [2] were more than 1000 nM and less than 10 nM, respectively.

In the case of `Cc1ccc(O)c(C)c1-c1nc(C2CCC2)cc2c(N)ncnc12` (single isomer, unassigned) [Compound 40-B], the IC50 is more than 1000 nM in test [1] and less than 10 nM in test [2].

For `Cc1ccc(O)c(C)c1-c1nc(C2=CCOCC2)cc2c(N)ncnc12` (single isomer, unassigned) [Compound 56-B], the values for the IC50 in test [1] and in test [2] were 100 to 1000 nM and less than 10 nM, respectively.

Consider `Cc1ccc(O)c(C)c1-c1nc(N2CC[C@H](O)C2)cc2c(N)ncnc12` (single isomer, unassigned) [Compound 4-B], for which the IC50 in test [1] is more than 1000 nM; in test [2], 10 to 100 nM.

As for `Cc1ccc(O)c(C)c1-c1nc(N(C)C(C)C)cc2c(N)ncnc12` (single isomer, unassigned) [Compound 12-B], the values for the IC50 in test [1] and in test [2] were more than 1000 nM and less than 10 nM, respectively.

As for `Cc1ccc(O)c(C)c1-c1nc(N2CC[C@@H](F)C2)cc2c(N)ncnc12` (single isomer, unassigned) [Compound 58-B], the results for the 50% inhibitory concentration (IC50) in test [1] and in test [2] were 100 to 1000 nM and less than 10 nM, respectively.

Regarding `CO[C@H]1C[C@H](N(C)c2cc3c(N)ncnc3c(-c3c(C)ccc(O)c3C)n2)C1` [Compound 62-D, 3-((S)-4-amino-6-(((1r,3S)-3-methoxycyclobutyl)(methyl)amino)pyrido[3,4-d]pyrimidin-8-yl)-2,4-dimethylphenol], the IC50 in test [1] was more than 1000 nM; in test [2] it was less than 10 nM.

Turning to `CO[C@H]1C[C@@H](N(C)c2cc3c(N)ncnc3c(-c3c(C)ccc(O)c3C)n2)C1` [Compound 62-B, 3-((S)-4-amino-6-(((1s,3R)-3-methoxycyclobutyl)(methyl)amino)pyrido[3,4-d]pyrimidin-8-yl)-2,4-dimethylphenol], the IC50 in test [1] is more than 1000 nM; in test [2], less than 10 nM.

As to `Cc1ccc(O)c(C)c1-c1nc(C(F)(F)F)cc2c(N)ncnc12` (single isomer, unassigned) [Compound 39-B], in test [2], the IC50 fell in the range of 10 to 100 nM.
